# US11013726B2 (Arbutus Biopharma Corporation, priority 2016, dated 2021)
# Where two headings read alike, the source gives them in different places.
# How the values were obtained:
# HBsAg [1] = assay: In vitro combination study, HBsAg CLIA, MacSynergy II; assay type: cell-based, hepatitis B virus; design: MacSynergy volume: unit not given here; conditions: for Additive % Inhibition (HBsAg) versus negative control / Avg % Inhibition (HBsAg) versus negative control: LNP-1 0.0025, 0.00079, 0.00025, 7.9E−05, 2.5E−05, 0 μM; for Additive % Inhibition versus negative control / MacSynergy volume: LNP-2 0 μM; for MacSynergy volume: 99.99% confidence interval
# Protocol: In vitro combination studies were conducted using the method of Prichard & Shipman, 1990, Antiviral Res. 14(4-5):181-205, and Prichard, et al., MacSynergy II). The HepG2.2.15 cell culture system is a cell line derived from human hepatoblastoma HepG2 cells, that have been stably transfected with the adw2-subtype HBV genome (Sells, et al., 1987, Proc. Natl. Acad. Sci. U.S.A 84:1005-1009). HepG2.2.15 cells secrete Dane-like viral particles, produce HBV DNA, and produce the viral proteins, HBeAg and HBsAg.
# Non-limiting examples of HBV RNA destabilizers are Compound A and Compound B. The EC50 values of these agents are shown in Table 12. Although inhibition of HBV DNA, RNA and proteins can be determined in the presence of the compounds of the invention and LNPs (both referred to herein as “agents”), the assay that can quantitatively measure the level of HBsAg was used in this study. To test the agent combinations, HepG2.2.15 (30,000 cells/well) were plated in 96 well tissue-culture treated microtiter plates in DMEM+L-Glutamine medium supplemented with 1% penicillin-streptomycin, 20 μg/mL geneticin (G418), 10% fetal bovine serum, and incubated in a humidified incubator at 37° C. and 5% CO2 overnight. The next day, the cells were replenished with fresh medium followed by the addition of compound of the invention (dissolved in 100% DMSO), and LNP (dissolved in 100% RPMI medium). The agents were added to cells in a checkerboard fashion. The microtiter cell plates were incubated for a total duration of 6 days in a humidified incubator at 37° C. and 5% CO2. On the 3rd day of incubation, the cells were replenished with fresh medium and agents. The serial dilutions spanned concentration ranges respective to the EC50 value of each agent, with the final DMSO concentration of the assay being 0.5%. In addition to combination testing of the agents in a checkerboard fashion, the compound and LNP were also tested alone.
# Untreated positive control samples (0.5% DMSO in media) were included on each plate in multiple wells. Following a 6 day-incubation, media was removed from treated cells for use in an HBsAg chemiluminescence immunoassay (CLIA) (Autobio Diagnostics, Cat No. CL0310-2). An HBsAg standard curve was generated to verify that the levels of HBsAg quantification were within the detection limits of the assay. The remaining inhibitor-treated cells were assessed for cytotoxicity by determination of the intracellular adenosine triphosphate (ATP) using a Cell-Titer Glo reagent (Promega) as per manufacturers instructions and by microscopic analysis of the cells throughout the duration of inhibitor treatment. Cell viability was calculated as a percentage of the untreated positive control wells.
# The plates were read using an EnVision multimode plate reader (PerkinElmer Model 2104). […] The RLU data from the single agent treated cells were analyzed using XL-Fit module in Microsoft Excel to determine EC50 values using a 4-parameter curve fitting algorithm.
# HBsAg [2] = assay: HBsAg assay; assay type: cell-based, hepatitis B virus
# Outline: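 HepG2.2.15 cells were treated with serially diluted compounds (0.5% DMSO), with medium and compound renewed after 2-3 days. Secreted HBsAg measured at day 6 by chemiluminescence immunoassay; EC50 from dose-response curves. Viability assessed in parallel by CellTiter-Glo.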
# [3] = Hepatitis B virus, HepG2.2.15, 144 h, read-out: sAg EC50, μM, HepG2.2.15 cells, day 6
smiles,measurement,setting,value
COCCCOc1cc2c(cc1Cl)-c1cc(=O)c(C(=O)O)cn1[C@H](C(C)C)CO2 [Compound B],Additive % Inhibition (HBsAg) versus negative control,HBsAg [1]; Compound B 0.0002 μM,19.99%
same,Avg % Inhibition (HBsAg) versus negative control,HBsAg [1]; Compound B 0.0002 μM,19.99%
same,Additive % Inhibition (HBsAg) versus negative control,HBsAg [1]; Compound B 0.0006 μM,22.24%
same,Avg % Inhibition (HBsAg) versus negative control,HBsAg [1]; Compound B 0.0006 μM,22.24%
same,Additive % Inhibition (HBsAg) versus negative control,HBsAg [1]; Compound B 0.002 μM,28.73%
same,Avg % Inhibition (HBsAg) versus negative control,HBsAg [1]; Compound B 0.002 μM,28.73%
same,Additive % Inhibition (HBsAg) versus negative control,HBsAg [1]; Compound B 0.006 μM,39.16%
same,Avg % Inhibition (HBsAg) versus negative control,HBsAg [1]; Compound B 0.006 μM,39.16%
same,Additive % Inhibition (HBsAg) versus negative control,HBsAg [1]; Compound B 0.02 μM,61.93%
same,Avg % Inhibition (HBsAg) versus negative control,HBsAg [1]; Compound B 0.02 μM,61.93%
same,Additive % Inhibition (HBsAg) versus negative control,HBsAg [1]; Compound B 0.06 μM,80.51%
same,Avg % Inhibition (HBsAg) versus negative control,HBsAg [1]; Compound B 0.06 μM,80.51%
same,Additive % Inhibition (HBsAg) versus negative control,HBsAg [1]; Compound B 0.20 μM,89.95%
same,Avg % Inhibition (HBsAg) versus negative control,HBsAg [1]; Compound B 0.20 μM,89.95%
same,Additive % Inhibition (HBsAg) versus negative control,HBsAg [1]; Compound B 0.63 μM,92.6%
same,Avg % Inhibition (HBsAg) versus negative control,HBsAg [1]; Compound B 0.63 μM,92.6%
same,Additive % Inhibition (HBsAg) versus negative control,HBsAg [1]; Compound B 2 μM,93.51%
same,Avg % Inhibition (HBsAg) versus negative control,HBsAg [1]; Compound B 2 μM,93.51%
same,Additive % Inhibition versus negative control,HBsAg [1]; Compound B 0.0002 μM,16.15%
same,MacSynergy volume,HBsAg [1]; Compound B 0.0002 μM,0
same,Additive % Inhibition versus negative control,HBsAg [1]; Compound B 0.0006 μM,18.39%
same,MacSynergy volume,HBsAg [1]; Compound B 0.0006 μM,0
same,Additive % Inhibition versus negative control,HBsAg [1]; Compound B 0.002 μM,21.16%
same,MacSynergy volume,HBsAg [1]; Compound B 0.002 μM,0
same,Additive % Inhibition versus negative control,HBsAg [1]; Compound B 0.006 μM,31.66%
same,MacSynergy volume,HBsAg [1]; Compound B 0.006 μM,0
same,Additive % Inhibition versus negative control,HBsAg [1]; Compound B 0.02 μM,51.93%
same,MacSynergy volume,HBsAg [1]; Compound B 0.02 μM,0
same,Additive % Inhibition versus negative control,HBsAg [1]; Compound B 0.06 μM,74.92%
same,MacSynergy volume,HBsAg [1]; Compound B 0.06 μM,0
same,Additive % Inhibition versus negative control,HBsAg [1]; Compound B 0.20 μM,86.86%
same,MacSynergy volume,HBsAg [1]; Compound B 0.20 μM,0
same,Additive % Inhibition versus negative control,HBsAg [1]; Compound B 0.63 μM,91.2%
same,MacSynergy volume,HBsAg [1]; Compound B 0.63 μM,0
same,Additive % Inhibition versus negative control,HBsAg [1]; Compound B 2 μM,92.52%
same,MacSynergy volume,HBsAg [1]; Compound B 2 μM,0
"COCCCOc1cc2c(nc1Cl)-c1cc(=O)c(C(=O)O)cn1C1C(CCC1(C)C)O2 (single isomer, unassigned) [Example 83, 6-Chloro-7-(3-methoxypropoxy)-12,12-dimethyl-3-oxo-9a,11,12,12a-tetrahydro-3H,10H-cyclopenta[b]dipyrido[1,2-d:2′,3′-f][1,4]oxazepine-2-carboxylic acid]",EC50,"HBsAg [2]; read-out: sAg EC50, HepG2.2.15 cells, day 6",1 µM
"COc1cc2c(cc1Cl)-c1cc(=O)c(C(=O)O)cn1C(C1CCC1)CO2 (centres unmarked) [Example 10, 2-Chloro-7-cyclobutyl-3-methoxy-11-oxo-6,7-dihydro-11H-benzo[f]pyrido[1,2-d][1,4]oxazepine-10-carboxylic acid]",EC50,HBsAg [2]; [3],0.24 µM
"CC(C)[C@@H]1COc2cc(OCCCNC(=O)OC(C)(C)C)c(Cl)cc2-c2cc(=O)c(C(=O)O)cn21 [Example 42, (R)-3-(3-((tert-Butoxycarbonyl)amino)propoxy)-2-chloro-7-isopropyl-11-oxo-6,7-dihydro-11H-benzo[f]pyrido[1,2-d][1,4]oxazepine-10-carboxylic acid]",EC50,HBsAg [2]; [3],0.042 µM
"COc1cc2c(cc1Cl)-c1cc(=O)c(C(=O)O)cn1[C@@H](CC(C)C)CO2 (single isomer, unassigned) [Example 6]",EC50,HBsAg [2]; [3],3.8 µM
"COCCCOc1cc2c(cc1Cl)-c1cc(=O)c(-c3ncccn3)cn1C(C(C)(C)C)C2 (centres unmarked) [Example 132, 6-Tert-butyl-10-chloro-9-(3-methoxypropoxy)-3-(pyrimidin-2-yl)-6H,7H-pyrido[2,1-a]isoquinolin-2-one]",EC50,HBsAg [2]; [3],0.078 µM
"CC(C)(C)C1Cc2cc3c(cc2-c2cc(=O)c(C(=O)O)cn21)OCC(O)CO3 (centres unmarked) [Example 103, 6-(Tert-butyl)-11-hydroxy-2-oxo-6,7,11,12-tetrahydro-2H,10H-[1,4]dioxepino[2,3-g]pyrido[2,1-a]isoquinoline-3-carboxylic acid]",EC50,HBsAg [2]; [3],0.05 µM
"COc1cc2c(cc1Cl)-c1cc(=O)c(C(=O)O)cn1[C@@H](C(C)C)CO2 (single isomer, unassigned) [Example 4]",EC50,HBsAg [2]; [3],3.4 µM
"CC(C)[C@@H]1COc2cc(OCCOCCBr)c(Cl)cc2-c2cc(=O)c(C(=O)O)cn21 [Example 41, (R)-3-(2-(2-Bromoethoxy)ethoxy)-2-chloro-7-isopropyl-11-oxo-6,7-dihydro-11H-benzo[f]pyrido[1,2-d][1,4]oxazepine-10-carboxylic acid]",EC50,HBsAg [2]; [3],0.1 µM
"COCCCOc1cc2c(cc1OC)-c1cc(=NOC)c(C(=O)OC)cn1C(C(C)C)C2 (centres unmarked) [Example 148, Methyl 6-isopropyl-10-methoxy-2-(methoxyimino)-9-(3-methoxypropoxy)-6,7-dihydro-2H-pyrido[2,1-a]isoquinoline-3-carboxylate]",EC50,HBsAg [2]; [3],13 µM
"COCCCOc1cc2c(nc1OC)-c1cc(=O)c(C(=O)NO)cn1[C@H](C(C)C)C2 [Example 117, (S)—N-Hydroxy-6-isopropyl-2-methoxy-3-(3-methoxypropoxy)-10-oxo-5,10-dihydro-6H-pyrido[1,2-h][1,7]naphthyridine-9-carboxamide]",EC50,HBsAg [2]; [3],0.054 µM
"COCCCOc1cc2c(nc1Cl)-c1cc(=O)c(C(=O)O)cn1[C@H](C(C)(C)C)CO2 [Example 66, (R)-7-(Tert-butyl)-2-chloro-3-(3-methoxypropoxy)-11-oxo-6,7-dihydro-11H-dipyrido[1,2-d:2′,3′-f][1,4]oxazepine-10-carboxylic acid]",EC50,HBsAg [2]; [3],0.002 µM
